Read-outs that look alike come from different tables or passages of the source.
Key:
[1] = test system: vulvovaginal candidiasis (Candida spp.); type: in vivo, human; conditions: for rate of mycological eradication: SCY-078 combined arms / fluconazole arm; for Therapeutic cure (clinical cure and mycological eradication) / mycological eradication / clinical cure: ITT population; for Therapeutic cure (clinical cure and mycological eradication): Day 24 Test-of-Cure visit; for Therapeutic cure (clinical cure and mycological eradication) / mycological eradication: combined SCY-078 arms (n = 64) / fluconazole 150 mg (n = 32); for mycological eradication / clinical cure: Test-of-Cure visit (Day 24); for clinical cure: combined SCY-078 arms (n = 64, 1250 mg then 750 mg QD for 2 or 4 days) / fluconazole 150 mg single dose (n = 32)
Procedure: As a first step of the feasibility evaluation, a proof-of-concept exploratory trial in 96 patients with moderate to severe acute VVC was conducted. Subjects received SCY-078 tablets orally, administered at a dose of 1250 mg on day 1, followed by 750 mg once a day for 2 or 4 days. A comparator group of patients receiving oral fluconazole at the approved dose (150 mg, single dose) was also included.
This study was a proof-of-concept study conducted to evaluate the safety and efficacy of two dosing regimens of oral SCY-078 (administered as the phosphate salt) in subjects presenting with moderate to severe VVC.
Key criteria for inclusion included: • 1. Subjects with moderate to severe VVC, confirmed by positive potassium hydroxide (KOH) test from a vaginal secretion sample • 2. Three vaginitis episodes in the past year that were either confirmed to be caused by Candida spp. or that responded to antifungal therapy
Subjects were randomized in a 1:1:1 ratio to one of the three treatment arms: Oral SCY-078 loading dose of 1250 mg SCY-078, followed by 750 mg SCY-078 QD for 2 days or for 4 days, or Oral Fluconazole 150 mg for 1 day.
Subjects were evaluated on Day 24 (Test-of-Cure visit), Day 60, Day 90, and 120 days (end of study).
The analyses included clinical cure (all signs and symptoms present at baseline improved by at least two points (e.g., from moderate to absent or from severe to mild); after the study started, the FDA proposed that clinical cure is achieved if all signs and symptoms present at baseline are absent), mycological eradication (a negative culture for the baseline yeast pathogen), and therapeutic cure (both clinical cure and mycological eradication). Clinical cure has been proposed by the FDA as the primary endpoint for assessment of efficacy in VVC.
Ninety-six subjects were enrolled (intent-to-treat (ITT) population), and 70 subjects had cultured-confirmed Candida spp. infection (per protocol (PP) population).

[2] = test system: acute VVC (Candida spp. vaginal infection); experiment: clinical; type: in vivo, human; conditions: for mycological eradication / percentage of patients showing an S&S score of 0 or 1 / mean S&S score / percentage of patients with 0-or-1 S&S score / percentage of patients with clinical cure: SCY-078 600 mg dose arm / fluconazole arm; for mean S&S score: scale 0 to 18; for clinical cure / clinical cure, number of patients: Day 10 Test-of-Cure, mITT, SCY-078 600 mg (300 mg BID 1 day, n=27) / fluconazole 150 mg (n=24); for percentage of patients with 0-or-1 S&S score / percentage of patients with clinical cure: Day 25 Follow-Up visit; for patients who received rescue antifungal medication: through Day 25 Follow-Up, SCY-078 600 mg (n=27) / fluconazole (n=24)
Procedure: (§1) A Phase 2 study was conducted to evaluate the safety, efficacy, tolerability, and pharmacokinetics of five dose regimens of oral SCY-078 (administered as the citrate salt) compared to oral fluconazole in adult, female patients with moderate-to-severe acute VVC (defined as having a signs and symptoms (S&S) score of 7 or greater). A total of 186 intent-to-treat (ITT) patients were randomized into six different treatment arms as follows: five different dosing regimens of oral SCY-078 and one oral fluconazole treatment arm. The modified intent-to-treat (mITT) population was used for efficacy analysis and included 153 patients with culture-confirmed Candida spp. vaginal infection (positive microscopic examination of vaginal secretions showing yeast, vaginal pH≤4.5) at baseline. The doses of SCY-078 tested ranged from 600 mg to 1800 mg total dose administered over the duration of treatment, and the durations of treatment were 1 or 3 days:
(§2) The primary efficacy endpoint was clinical cure, which according to current FDA guidance is defined as complete resolution (score=0) of all signs and symptoms at the Day 10 Test-of-Cure visit without the need of additional antifungal therapy. Secondary endpoints included mycological eradication (negative culture) and a composite endpoint including both clinical cure and mycological eradication. Response was also evaluated based on the percent of patients achieving a noticeable improvement in their signs and symptoms, either by achieving an S&S score of 0 or 1 or an absolute change (reduction) in mean composite S&S score from baseline. An S&S score is based on a patient's reported symptoms (burning, itching, and irritation) and investigator-assessed signs (swelling, redness, and excoriations); each sign and symptom can be absent, mild, moderate, or severe, with a corresponding score from 0 to 3; the total composite scale is 0 to 18 points. Response was further evaluated by assessing the number of patients who received rescue antifungal therapy. Patients were assessed at the Day 10 Test-of-Cure visit and also at a Day 25 Follow-Up visit. The study was not designed to achieve statistically significant differences in any of the evaluated endpoints.

VVC = conditions: oral fluconazole, share of VVC cases, Diflucan label (May 2011); cited from earlier work
clinical = type: in vivo, human; conditions: female, human, in vivo, po, 300 mg
Procedure: as §1, §2

[3] = Day 24, per protocol population, SCY-078 Combined (n = 50) / Fluconazole (n = 20)
[4] = Month 4, SCY-078 Combined (n = 50) / Fluconazole (n = 20)
[5] = Day 24, per protocol population
[6] = Day 24, per protocol population, SCY-078 3-Days arm (n = 24)
[7] = Day 24, per protocol population, SCY-078 5-Days arm (n = 26)
[8] = Month 4, SCY-078 3-Days arm (n = 24)
[9] = Month 4, SCY-078 5-Days arm (n = 26)

With `OC(Cn1cncn1)(Cn1cncn1)c1ccc(F)cc1F` [Fluconazole, reference compound] as the compound, how does the “Clinical Cure (Updated FDA Definition), rate” value [1, 3] read?
Its value is 55%.

And the “Clinical Cure, rate” value [1, 3]?
Its value is 65%.

What about the “rate of mycological eradication” value ([1]; Day 24) of the same compound?
Its value is 65%.

What about the “Therapeutic cure (clinical cure and mycological eradication)” value [1] of the same compound?
Its value is 56.3%.

And the “Therapeutic cure (clinical cure and mycological eradication)” value ([1]; listed as fluconazole)?
The value was 56.3%.

And the mycological eradication [1]?
The mycological eradication was 68.8%.

And the clinical cure [1]?
The clinical cure was 65.6%.

What about the “Clinical Cure, rate” value [1, 4] of the same compound?
Its value is 65%.

What about the “Recurrences Requiring Antifungal Therapy, rate” value [1, 4] of the same compound?
The value was 15%.

What about the ““0” Signs and Symptoms, rate” value [1, 4] of the same compound?
The value was 65%.

What about the “rate of mycological eradication” value ([1]; Month 4) of the same compound?
The value was 60%.

And the mycological eradication ([2]; Day 10, mITT)?
Its mycological eradication is 63%.

And the “percentage of patients showing an S&S score of 0 or 1” value ([2]; Day 10, mITT)?
The value was 71%.

What about the “mean S&S score” value ([2]; Day 10, mITT) of the same compound?
Its value is 1.8.

And the clinical cure [2]?
Its clinical cure is 58%.

And the “clinical cure, number of patients” value [2]?
Its value is 14.

And the mycological eradication ([2]; Day 25)?
The mycological eradication was 38%.

And the “mean S&S score” value ([2]; Day 25)?
The value was 2.6.

What about the “percentage of patients with 0-or-1 S&S score” value [2] of the same compound?
Its value is 58%.

And the “percentage of patients with clinical cure” value [2]?
Its value is 50%.

And the “patients who received rescue antifungal medication” value [2]?
The value was 29%.

And the “therapeutic cure (complete resolution of signs and symptoms, negative KOH examination and negative culture)” value (VVC)?
The value was “approximately half”.

With `CC(C)[C@@H](C)[C@@]1(C)CC[C@]2(C)[C@H]3CC[C@@H]4[C@@]5(COC[C@]4(C)[C@@H](OC[C@](C)(N)C(C)(C)C)[C@H](n4ncnc4-c4ccncc4)C5)C3=CC[C@@]2(C)[C@@H]1C(=O)O` [SCY-078] as the compound, how does the “% Δ SCY-078 (combined) vs. Fluconazole, Clinical Cure” value [1, 5] read?
The value was 11%.

What about the “% Δ SCY-078 (combined) vs. Fluconazole, Clinical Cure (Updated FDA Definition)” value [1, 5] of the same compound?
The value was 15%.

And the “Clinical Cure (Updated FDA Definition), rate” value [1, 6]?
The value was 70.8%.

What about the “Clinical Cure, rate” value [1, 6] of the same compound?
The value was 79.2%.

What about the “Clinical Cure (Updated FDA Definition), rate” value [1, 7] of the same compound?
Its value is 69.2%.

What about the “Clinical Cure, rate” value [1, 7] of the same compound?
Its value is 73.1%.

What about the “Clinical Cure (Updated FDA Definition), rate” value [1, 3] of the same compound?
Its value is 70%.

What about the “Clinical Cure, rate” value [1, 3] of the same compound?
Its value is 76%.

What about the “rate of mycological eradication” value ([1]; Day 24) of the same compound?
Its value is 70%.

And the “Therapeutic cure (clinical cure and mycological eradication)” value [1]?
The value was 56.3%.

What about the mycological eradication [1] of the same compound?
The mycological eradication was 70.3%.

What about the clinical cure [1] of the same compound?
Its clinical cure is 78.1%.

What about the “% Δ SCY-078 (combined) vs. Fluconazole, Clinical Cure” value ([1]; Month 4) of the same compound?
Its value is 23%.

What about the “% Δ SCY-078 (combined) vs. Fluconazole, Recurrences Requiring Antifungal Therapy” value ([1]; Month 4) of the same compound?
The value was −11%.

And the “% Δ SCY-078 (combined) vs. Fluconazole, “0” Signs and Symptoms” value ([1]; Month 4)?
The value was 15%.

And the “Clinical Cure, rate” value [1, 8]?
Its value is 87.5%.

And the “Recurrences Requiring Antifungal Therapy, rate” value [1, 8]?
The value was 4.2%.

And the ““0” Signs and Symptoms, rate” value [1, 8]?
The value was 79.1%.

And the “Clinical Cure, rate” value [1, 9]?
Its value is 88.46%.

What about the “Recurrences Requiring Antifungal Therapy, rate” value [1, 9] of the same compound?
The value was 3.8%.

And the ““0” Signs and Symptoms, rate” value [1, 9]?
Its value is 80.7%.

What about the “Clinical Cure, rate” value [1, 4] of the same compound?
Its value is 88%.

And the “Recurrences Requiring Antifungal Therapy, rate” value [1, 4]?
Its value is 4%.

And the ““0” Signs and Symptoms, rate” value [1, 4]?
Its value is 80%.

And the “rate of mycological eradication” value ([1]; Month 4)?
Its value is 74%.

What about the “GI adverse events (e.g., nausea, diarrhea)” value ([1]; in vivo) of the same compound?
Its value is “higher rate of GI adverse events”.

What about the AUC(0-t) (clinical) of the same compound?
The AUC(0-t) was 3 to 8 µM·h.

And the Cmax (clinical)?
The Cmax was 200 to 500 nM.

What about the mycological eradication ([2]; Day 10, mITT) of the same compound?
Its mycological eradication is 63%.

What about the “percentage of patients showing an S&S score of 0 or 1” value ([2]; Day 10, mITT) of the same compound?
The value was 70%.

And the “mean S&S score” value ([2]; Day 10, mITT)?
The value was 1.0.

What about the clinical cure [2] of the same compound?
The clinical cure was 52%.

What about the “clinical cure, number of patients” value [2] of the same compound?
Its value is 14.

What about the mycological eradication ([2]; Day 25) of the same compound?
Its mycological eradication is 48%.

And the “mean S&S score” value ([2]; Day 25)?
The value was 0.4.

What about the “percentage of patients with 0-or-1 S&S score” value [2] of the same compound?
Its value is 81%.

And the “percentage of patients with clinical cure” value [2]?
Its value is 70%.

And the “patients who received rescue antifungal medication” value [2]?
The value was 4%.

Reference: patent US20260000656A1, “ANTIFUNGAL AGENTS WITH ENHANCED ACTIVITY IN ACIDIC PH” (Scynexis, Inc., priority 2017, published 2026)
